Assay results: paper PMC6155626 (Molecules : A Journal of Synthetic Chemistry and Natural …, 2016)
≈ marks a conversion by molar mass, not a printed value.

What was measured:
Ralstonia solanacearum = assay: microbe, parasite or virus in culture; assay type: cell-based; conditions: Ralstonia solanacearum; for inhibition at 100 µg/mL / inhibition at 200 µg/mL: read-out: Inhibition rate; for EC50: R. solanacearum
[1] = system: Xanthomonas axonopodis pv. citri; assay: microbe, parasite or virus in culture; assay type: cell-based; conditions: Xanthomonas axonopodis; for inhibition at 100 µg/mL / inhibition at 200 µg/mL: read-out: Inhibition rate
[2] = system: Xanthomonas oryzae pv. oryzae; assay: microbe, parasite or virus in culture; assay type: cell-based; conditions: for inhibition at 100 µg/mL / inhibition at 200 µg/mL / EC50: Xanthomonas oryzae; for inhibition at 100 µg/mL: read-out: Inhibition rate, X. oryzae, 100 μg/mL, average of three replicates; for inhibition at 200 µg/mL: read-out: Inhibition rate, X. oryzae, 200 μg/mL, average of three replicates; for Inhibition rate: X. oryzae, 200 μg/mL, average of three replicates

Structure (SMILES)	inhibition at 100 µg/mL (Ralstonia solanacearum)	inhibition at 200 µg/mL (Ralstonia solanacearum)	melting point	inhibition at 100 µg/mL [1]	inhibition at 200 µg/mL [1]	inhibition at 100 µg/mL [2]	inhibition at 200 µg/mL [2]	EC50 (Ralstonia solanacearum)	EC50 [1]	EC50 [2]	Inhibition rate [2]
O=S(=O)(Cc1ccccc1)c1nnc(COc2ccc(Cl)cc2Cl)s1 [Compound 5II-11, 2-(Benzylsulfonyl)-5-((2,4-dichlorophenoxy)methyl)-1,3,4-thiadiazole]	26%	27%	124 to 125 °C	32%	38%	14%	37%	–	–	–	–
CCS(=O)(=O)c1nnc(COc2ccc(F)cc2)s1 [Compound 5II-6, 2-(Ethylsulfonyl)-5-((4-fluorophenoxy)methyl)-1,3,4-thiadiazole]	12%	7%	89 to 90 °C	18%	15%	55%	65%	–	–	–	–
CS(=O)(=O)c1nnc(COc2ccc(Br)cc2)o1 [Compound 5I-3, 2-((4-Bromophenoxy)methyl)-5-(methylsulfonyl)-1,3,4-oxadiazole]	100%	100%	97 to 99 °C	90%	91%	100%	100%	19.6 ± 0.98 µg/mL (≈ 58.9 µM)	24.9 ± 2.52 µg/mL (≈ 74.7 µM)	1.67 ± 0.22 µg/mL (≈ 5.01 µM)	–
O=S(=O)(Cc1ccccc1)c1nnc(COc2ccc(Cl)cc2)s1 [Compound 5II-9, 2-(Benzylsulfonyl)-5-((4-chlorophenoxy)methyl)-1,3,4-thiadiazole]	18%	17%	140 to 141 °C	23%	14%	14%	19%	–	–	–	–
O=S(=O)(Cc1ccccc1)c1nnc(COc2ccccc2)o1 [Compound 5I-14, 2-(Benzylsulfonyl)-5-(phenoxymethyl)-1,3,4-oxadiazole]	37%	69%	95 to 96 °C	53%	76%	78%	95%	–	–	–	–
Cc1cc(Cl)ccc1OCc1nnc(S(C)(=O)=O)o1 [Compound 5I-5, 2-((4-Chloro-2-methylphenoxy)methyl)-5-(methylsulfonyl)-1,3,4-oxadiazole]	100%	100%	–	54%	100%	100%	100%	14.9 ± 1.27 µg/mL (≈ 49.3 µM)	96.8 ± 5.78 µg/mL (≈ 320 µM)	1.67 ± 0.16 µg/mL (≈ 5.52 µM)	–
Cc1cc(Cl)ccc1OCc1nnc(S(C)(=O)=O)s1 [Compound 5II-5, 2-((4-Chloro-2-methylphenoxy)methyl)-5-(methylsulfonyl)-1,3,4-thiadiazole]	8%	9%	160 to 161 °C	24%	25%	16%	42%	–	–	–	–
CS(=O)(=O)c1nnc(COc2ccccc2)o1 [Compound 5I-6, 2-(Methylsulfonyl)-5-(phenoxymethyl)-1,3,4-oxadiazole]	100%	100%	–	57%	88%	100%	100%	13.6 ± 2.12 µg/mL (≈ 53.3 µM)	85 ± 4.32 µg/mL (≈ 334 µM)	1.86 ± 0.23 µg/mL (≈ 7.32 µM)	–
CCS(=O)(=O)c1nnc(COc2ccc(F)cc2)o1 [Compound 5I-7, 2-(Ethylsulfonyl)-5-((4-fluorophenoxy)methyl)-1,3,4-oxadiazole]	99%	100%	–	53%	65%	100%	100%	7.75 ± 1.01 µg/mL (≈ 27.1 µM)	52.2 ± 2.14 µg/mL (≈ 182 µM)	0.52 ± 0.16 µg/mL (≈ 1.82 µM)	–
O=S(=O)(Cc1ccccc1)c1nnc(COc2ccc(Cl)cc2Cl)o1 [Compound 5I-12, 2-(Benzylsulfonyl)-5-((2,4-dichlorophenoxy)methyl)-1,3,4-oxadiazole]	20%	33%	121 to 122 °C	23%	26%	70%	98%	–	–	–	–
O=S(=O)(Cc1ccccc1)c1nnc(COc2ccc(F)cc2)o1 [Compound 5I-9, 2-(Benzylsulfonyl)-5-((4-fluorophenoxy)methyl)-1,3,4-oxadiazole]	25%	33%	94 to 96 °C	50%	72%	100%	100%	–	–	–	–
CS(=O)(=O)c1nnc(COc2ccc(Br)cc2)s1 [Compound 5II-3, 2-((4-Bromophenoxy)methyl)-5-(methylsulfonyl)-1,3,4-thiadiazole]	7%	26%	114 to 115 °C	18%	25%	28%	30%	–	–	–	–
CCS(=O)(=O)c1nnc(COc2ccc(Cl)cc2Cl)s1 [Compound 5II-7, 2-((2,4-Dichlorophenoxy)methyl)-5-(ethylsulfonyl)-1,3,4-thiadiazole]	0%	0%	127 to 128 °C	6%	32%	13%	20%	–	–	–	–
CCS(=O)(=O)c1nnc(COc2ccc(Cl)cc2Cl)o1 [Compound 5I-8, 2-((2,4-Dichlorophenoxy)methyl)-5-(ethylsulfonyl)-1,3,4-oxadiazole]	43%	97%	–	36%	62%	87%	100%	–	–	–	–
CS(=O)(=O)c1nnc(COc2ccc(Cl)cc2Cl)s1 [Compound 5II-4, 2-((2,4-Dichlorophenoxy)methyl)-5-(methylsulfonyl)-1,3,4-thiadiazole]	15%	18%	160 to 162 °C	20%	23%	18%	16%	–	–	–	–
O=S(=O)(Cc1ccccc1)c1nnc(COc2ccc(F)cc2)s1 [Compound 5II-8, 2-(Benzylsulfonyl)-5-((4-fluorophenoxy)methyl)-1,3,4-thiadiazole]	10%	30%	132 to 134 °C	21%	24%	8%	24%	–	–	–	–
CS(=O)(=O)c1nnc(COc2ccc(F)cc2)s1 [Compound 5II-1, 2-((4-Fluorophenoxy)methyl)-5-(methylsulfonyl)-1,3,4-thiadiazole]	49%	50%	107 to 109 °C	36%	40%	92%	84 to 99%	–	–	–	99%
O=S(=O)(Cc1ccccc1)c1nnc(COc2ccc(Cl)cc2)o1 [Compound 5I-10, 2-(Benzylsulfonyl)-5-((4-chlorophenoxy)methyl)-1,3,4-oxadiazole]	19%	24%	126 to 128 °C	62%	74%	48%	90%	–	–	–	–
Cc1cc(Cl)ccc1OCc1nnc(S(=O)(=O)Cc2ccccc2)s1 [Compound 5II-12, 2-(Benzylsulfonyl)-5-((4-chloro-2-methylphenoxy)methyl)-1,3,4-thiadiazole]	0%	0%	125 to 126 °C	33%	10%	0%	5%	–	–	–	–
O=S(=O)(Cc1ccccc1)c1nnc(COc2ccc(Br)cc2)o1 [Compound 5I-11, 2-(Benzylsulfonyl)-5-((4-bromophenoxy)methyl)-1,3,4-oxadiazole]	13%	18%	142 to 143 °C	16%	11%	38%	56%	–	–	–	–
Cc1cc(Cl)ccc1OCc1nnc(S(=O)(=O)Cc2ccccc2)o1 [Compound 5I-13, 2-(Benzylsulfonyl)-5-((4-chloro-2-methylphenoxy)methyl)-1,3,4-oxadiazole]	8%	15%	144 to 145 °C	0%	7%	13%	33%	–	–	–	–
CS(=O)(=O)c1nnc(COc2ccc(Cl)cc2)s1 [Compound 5II-2, 2-((4-Chlorophenoxy)methyl)-5-(methylsulfonyl)-1,3,4-thiadiazole]	45%	56%	119 to 120 °C	16%	27%	73%	84 to 99%	–	–	–	84%
O=S(=O)(Cc1ccccc1)c1nnc(COc2ccc(Br)cc2)s1 [Compound 5II-10, 2-(Benzylsulfonyl)-5-((4-bromophenoxy)methyl)-1,3,4-thiadiazole]	1%	11%	147 to 148 °C	8%	5%	0%	10%	–	–	–	–
